According to patent publication US7307100B2, “2-Benzoylchromone derivatives” (Merck Patent GmbH, priority 2002, dated 2007):

How the values were obtained:
PKB = PKB (Homo sapiens, UniProt P31749); assay: Inhibition of PKB (serine/threonine kinase); format: biochemical; settings: read-out: Inhibition of PKB expressed in IC50
Description: (§1) The 2-benzoylchromone derivatives were tested as tyrosine kinase inhibitors (see Table 1: Inhibition of TIE-2), but also as serine/threonine kinase inhibitors (see Table 1: PKB).

TIE-2 = TIE-2 (Homo sapiens, UniProt Q02763); assay: Inhibition of TIE-2 (tyrosine kinase); format: biochemical; settings: read-out: Inhibition of TIE-2 expressed in IC50
Description: as §1

Sequence of PKB (P31749 whole entry): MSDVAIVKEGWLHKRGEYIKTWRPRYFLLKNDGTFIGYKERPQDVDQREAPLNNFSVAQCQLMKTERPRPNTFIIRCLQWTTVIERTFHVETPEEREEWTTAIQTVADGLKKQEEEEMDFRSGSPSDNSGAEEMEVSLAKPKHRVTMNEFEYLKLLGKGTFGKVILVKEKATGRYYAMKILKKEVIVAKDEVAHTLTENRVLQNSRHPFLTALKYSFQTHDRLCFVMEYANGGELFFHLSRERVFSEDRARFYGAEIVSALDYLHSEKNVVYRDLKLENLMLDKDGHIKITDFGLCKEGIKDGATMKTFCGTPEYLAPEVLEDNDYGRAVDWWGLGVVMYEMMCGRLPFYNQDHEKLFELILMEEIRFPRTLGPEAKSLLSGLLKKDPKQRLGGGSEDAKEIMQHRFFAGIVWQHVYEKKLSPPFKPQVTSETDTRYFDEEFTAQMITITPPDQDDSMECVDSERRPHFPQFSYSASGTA
Sequence of TIE-2 (Q02763 23-1124): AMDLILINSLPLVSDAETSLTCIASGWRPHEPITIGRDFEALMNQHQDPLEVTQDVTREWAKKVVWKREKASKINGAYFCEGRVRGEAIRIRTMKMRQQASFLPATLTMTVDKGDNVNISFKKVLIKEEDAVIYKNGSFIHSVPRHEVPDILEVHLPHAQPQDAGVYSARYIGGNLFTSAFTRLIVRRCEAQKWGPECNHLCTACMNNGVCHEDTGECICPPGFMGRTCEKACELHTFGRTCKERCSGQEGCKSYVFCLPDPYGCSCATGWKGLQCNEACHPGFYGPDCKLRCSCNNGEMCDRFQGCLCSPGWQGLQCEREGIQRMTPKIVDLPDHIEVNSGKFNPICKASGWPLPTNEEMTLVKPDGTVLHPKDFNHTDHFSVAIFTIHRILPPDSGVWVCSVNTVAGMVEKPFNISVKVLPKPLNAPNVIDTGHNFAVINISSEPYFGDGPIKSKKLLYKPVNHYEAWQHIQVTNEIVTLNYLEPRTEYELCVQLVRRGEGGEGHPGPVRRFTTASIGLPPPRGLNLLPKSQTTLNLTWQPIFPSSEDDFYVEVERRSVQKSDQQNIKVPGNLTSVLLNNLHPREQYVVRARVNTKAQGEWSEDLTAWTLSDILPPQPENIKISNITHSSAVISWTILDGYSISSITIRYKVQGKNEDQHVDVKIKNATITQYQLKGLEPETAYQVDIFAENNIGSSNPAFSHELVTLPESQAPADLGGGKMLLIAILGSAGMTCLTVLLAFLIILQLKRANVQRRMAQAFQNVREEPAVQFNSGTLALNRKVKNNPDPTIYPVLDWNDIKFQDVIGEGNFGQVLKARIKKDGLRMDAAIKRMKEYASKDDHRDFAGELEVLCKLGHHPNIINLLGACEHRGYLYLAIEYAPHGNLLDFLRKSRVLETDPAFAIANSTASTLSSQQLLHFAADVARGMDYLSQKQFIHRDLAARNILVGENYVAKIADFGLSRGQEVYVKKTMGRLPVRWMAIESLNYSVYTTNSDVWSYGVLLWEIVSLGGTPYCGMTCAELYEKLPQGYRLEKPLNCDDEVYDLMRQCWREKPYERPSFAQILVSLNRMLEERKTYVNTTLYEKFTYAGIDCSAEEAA

SMILES	IC50 (PKB)	IC50 (TIE-2)
O=C(c1cc(=O)c2c(O)cccc2o1)c1ccc(O)cc1O [5-hydroxy-2-(2′,4′-dihydroxybenzoyl)chromone]	> 30 µM	> 10 µM
O=C(c1cc(=O)c2cc3c(cc2o1)OCO3)c1cc2c(cc1O)OCO2 [6,7-methylenedioxy-2-(2′-hydroxy-4′,5′-methylenedioxybenzoyl)chromone]	> 30 µM	3.6 µM
O=C(c1cc(=O)c2cc(O)ccc2o1)c1cc2c(cc1O)OCO2 [6-hydroxy-2-(2′-hydroxy-4′,5′-methylenedioxybenzoyl)chromone]	> 30 µM	> 10 µM
